Assay results taken from patent US6159733A, “Method for photoinactivating malignant cells” (priority 1996, dated 2000).

How the values were obtained:
ABE-8.1/2 cells [1] = assay: Uptake of Pc 4, flow cytometry; assay type: cell-based, murine; settings: for Pc 4 content / Pc 4 content per cell volume: 15 nM
Description: (§1) Cell lines and culture conditions. WEHI-3 (murine myelocytic leukemia), L1210 (murine lymphocytic leukemia) and P815 (murine mastocytoma) cells were grown in RPMI 1640 (GibcoBRL, Grand Island, N.Y.) supplemented with 10% FBS. BC3A (murine leukemia) cells were grown in RPMI 1640 supplemented with 10 μM β-mercaptoethanol and 10% FBS; ABE-8.1/2 (murine pre-B lymphoma) cells were grown in DMEM (GibcoBRL)--10 μM β-mercaptoethanol--10% FBS. All cell lines were obtained from the American Type Culture Collection (Rockville, Md.) and were cultured at 37° C. in a humidified 5% CO2 -incubator. Prior to incubation with Pc 4, the cell lines were centrifuged and resuspended in phosphate buffered saline (PBS)--10% FBS, pH 7.4.
(§2) In mixing experiments, aliquots of Ly-5.2 BM and cell lines samples were mixed at different ratios. The combined cell concentration of each sample was 1.5×10^7 cells/mL. […] The cell lines were stained with anti-Ly-5.1^FITC. This treatment allowed clear resolution of the relatively small ABE-8.1/2 and BC3A cells from the bone marrow granulocytes. Immediately prior to the analyses, propidium iodide (PI, 0.5 μg/mL) was added to the samples to allow exclusion of dead cells (PI^+) from the analyses. The samples were analyzed in a FACStar^PLUS (BD) that was equipped with an argon ion laser tuned to 488 nm (200 mW) and a dye laser tuned to 610 nm (300 mW). FITC, PE, PI and Pc 4 fluorescence emissions were collected through 530/30, 575/42, 660/10, 670/10 nm band pass filters, respectively.
(§3) Cell size. Microscopic measurements of at least 20 cells were performed using a calibrated micrometer. To determine the cell size of the BM progenitor subsets, the c-kit^+,Sca-1^- and c-kit^+,Sca-1^+ fractions were sorted. The sorted cells were centrifuged and the pellets were resuspended in a 20 μl of HBBS. Samples were deposited onto microscope slides and covered with a cover slip. Cell diameters of 7.7±0.2 (c-kit^+,Sca-1^+), 8.4±0.3 (c-kit^+,Sca-1^-), 10.9±0.2 (BC3A), 11.1±0.2 (ABE-8.1/2), 13.0±0.3 (L1210), 14.2±0.3 (P815), 15.0±0.4 μm (WEHI-3) were obtained.

P815 cells [2] = assay: Uptake of Pc 4, flow cytometry; assay type: cell-based, murine; settings: for Pc 4 content / Pc 4 content per cell volume: 15 nM
Description: as §1, §2, §3

[3] = test system: cell lines and bone marrow samples; assay: Uptake of Pc 4; assay type: cell-based, murine
Description: Photosensitization. Aliquots of a 1.87 mM Pc 4 (kindly provided by Dr. M. E. Kenney) stock solution in dimethyl sulfoxide were kept at -80° C. in autoclaved brown glass vials. Immediately prior to the photosensitization, Pc4 was thawed and diluted in dimethyl formamide to yield a 10 μM working solution. […] Pc 4 was used at 15 nM throughout the experiments.

[4] = test system: multidrug resistance (mdr) pump; assay: Uptake of Pc 4 by BM in presence of verapamil
Description: Uptake of Pc 4. Following a two hour incubation at 37° C. with 15 nM Pc 4, cell line and BM samples were analyzed for Pc 4 uptake by flow cytometry. BM samples were first incubated with anti-c-kit^PE (Pharmingen) and anti-Sca-1^FITC (Pharmingen), to allow analysis of the Pc 4 uptake in the committed progenitor fraction (c-kit^+,Sca-1^-) and the pluripotent stem cell fraction (c-kit^+,Sca-1^+) (Li, C. L. and G. R. Johnson Blood 85:1472 (1995)). Following a 20 minute incubation on ice, and two subsequent washes, the samples were incubated with 15 nM Pc 4. The relative Pc 4 uptake was calculated by subtracting the mean fluorescence signals of the untreated control samples from the mean Pc 4 fluorescence signals.

SK-BR3 = settings: 15 nM Pc 4, 5×10^6 cells/mL, 8 J/cm^2; cited from earlier work
[5] = test system: progenitor cells (c-kit^+,Sca-1^-); assay: Uptake of Pc 4, flow cytometry; assay type: cell-based, murine
Description: as §2, §3

[6] = test system: pluripotent stem cells (c-kit^+,Sca-1^+); assay: Uptake of Pc 4, flow cytometry; assay type: cell-based, murine; settings: for Pc 4 content / Pc 4 content per cell volume: 15 nM
Description: as §2, §3

ABE-8.1/2 cells [7] = assay: Uptake of Pc 4 in mixtures of BM and cell lines; assay type: cell-based, murine
Description: as §2

P815 cells [8] = assay: Uptake of Pc 4 in mixtures of BM and cell lines; assay type: cell-based, murine
Description: as §2

BM progenitors (c-kit^+) = assay: Uptake of Pc 4 in mixtures of BM and cell lines; assay type: cell-based, murine
Description: as §2

[9] = 1.5×10^6 cells/ml during incubation
[10] = 1.5×10^7 cells/ml during incubation
[11] = from 8.0×10^5 to 1.5×10^7 cells/mL
[12] = 15 nM, 1.5×10^6 cells/ml during incubation
[13] = 15 nM, 1.5×10^7 cells/ml during incubation

## CN(C)CCC[Si](C)(C)O[Si]1(O)n2c3c4ccccc4c2N=C2N=C(N=c4c5ccccc5c(n41)=NC1=NC(=N3)c3ccccc31)c1ccccc12 (centres unmarked) [Pc 4, hydroxysiloxy-dimethylpropyl-N-dimethyl silicon phthalocyanine]
ABE-8.1/2 cells [1]; [9]
  Pc 4 content: 218 ± 29.0 Mean fluorescence/cell
  Pc 4 content per cell volume: 0.30 Mean fluorescence/μm^3
ABE-8.1/2 cells [1]; [10]
  Pc 4 content: 95 ± 7.6 Mean fluorescence/cell
  Pc 4 content per cell volume: 0.13 Mean fluorescence/μm^3
ABE-8.1/2 cells [1]; [11]
  reduction of Pc 4 uptake: 2.5 fold
P815 cells [2]; [9]
  Pc 4 content: 414 ± 21.5 Mean fluorescence/cell
  Pc 4 content per cell volume: 0.28 Mean fluorescence/μm^3
P815 cells [2]; [10]
  Pc 4 content: 152 ± 17.2 Mean fluorescence/cell
  Pc 4 content per cell volume: 0.10 Mean fluorescence/μm^3
P815 cells [2]; [11]
  reduction of Pc 4 uptake: 2.8 fold
[3]; all cell types, 15 nM
  dependence of Pc 4 uptake on cell concentration: inversely correlated with the cell concentration
[3]; committed progenitors and pluripotent stem cells, corrected for cell volume
  cellular Pc 4 concentration in BM fractions relative to cell lines: almost twice
[3]; murine BM samples
  time to complete uptake: complete after two hours
[4]; BM samples, verapamil during incubation
  effect of verapamil on uptake of Pc 4: did not increase the uptake
[4]; application with samples containing mdr^+ leukemic cells
  comparison with BPD-DA and benzochlorin: compared favorable to BPD-DA
[4]; murine pluripotent stem cells
  substrate of the multidrug resistance pump: not a substrate
SK-BR3
  surviving fraction of human cells: < 10^-5
[5]; [12]
  Pc 4 content: 136 ± 7.8 Mean fluorescence/cell
  Pc 4 content per cell volume: 0.44 Mean fluorescence/μm^3
[5]; [13]
  Pc 4 content: 68 ± 8.2 Mean fluorescence/cell
  Pc 4 content per cell volume: 0.22 Mean fluorescence/μm^3
[5]; 15 nM, BM progenitor cells
  cell concentration at which uptake reached a plateau: 8.0×10^5 cells/mL
[5]; 1.5×10^7 cells/mL (p=0.07)
  difference in Pc 4 content, committed progenitors vs ABE-8.1/2: not quite significant
[5]; 1.5×10^7 cells/mL (p=0.29)
  difference in Pc 4 content, committed progenitors vs BC3A: not significant
[5]; BM progenitors, from 8.0×10^5 to 1.5×10^7 cells/mL
  reduction of Pc 4 uptake: 1.8 fold
[6]; [9]
  Pc 4 content: 109 ± 6.5 Mean fluorescence/cell
  Pc 4 content per cell volume: 0.50 Mean fluorescence/μm^3
[6]; [10]
  Pc 4 content: 54 ± 6.9 Mean fluorescence/cell
  Pc 4 content per cell volume: 0.23 Mean fluorescence/μm^3
[6]; 1.5×10^7 cells/mL (p=0.26)
  difference in Pc 4 content, pluripotent stem cells vs committed progenitors: not significant
ABE-8.1/2 cells [7]; BM fraction<0.9, versus without BM
  Pc 4 uptake in mixtures versus cell line alone: lower
ABE-8.1/2 cells [7]; BM/ABE-8.1/2, BM fraction 0.50
  Pc 4 content in cell line: 74 Mean fluorescence/cell
ABE-8.1/2 cells [7]; BM/ABE-8.1/2, BM fraction 0.70
  Pc 4 content in cell line: 86 Mean fluorescence/cell
ABE-8.1/2 cells [7]; BM/ABE-8.1/2, BM fraction 0.80
  Pc 4 content in cell line: 91 Mean fluorescence/cell
ABE-8.1/2 cells [7]; BM/ABE-8.1/2, BM fraction 0.90
  Pc 4 content in cell line: 95 Mean fluorescence/cell
ABE-8.1/2 cells [7]; BM/ABE-8.1/2, BM fraction 0.95
  Pc 4 content in cell line: 100 Mean fluorescence/cell
P815 cells [8]; BM/P815, BM fraction 0.50
  Pc 4 content in cell line: 205 Mean fluorescence/cell
P815 cells [8]; BM/P815, BM fraction 0.70
  Pc 4 content in cell line: 241 Mean fluorescence/cell
P815 cells [8]; BM/P815, BM fraction 0.80
  Pc 4 content in cell line: 270 Mean fluorescence/cell
P815 cells [8]; BM/P815, BM fraction 0.90
  Pc 4 content in cell line: 312 Mean fluorescence/cell
P815 cells [8]; BM/P815, BM fraction 0.95
  Pc 4 content in cell line: 335 Mean fluorescence/cell
P815 cells [8]; versus 1.5×10^7 cells/mL without BM
  Pc 4 uptake in mixtures versus cell line alone: contained more Pc 4
BM progenitors (c-kit^+); BM/ABE-8.1/2, BM fraction 0.50
  Pc 4 content in c-kit^+ BM: 48 Mean fluorescence/cell
BM progenitors (c-kit^+); BM/ABE-8.1/2, BM fraction 0.70
  Pc 4 content in c-kit^+ BM: 52 Mean fluorescence/cell
BM progenitors (c-kit^+); BM/ABE-8.1/2, BM fraction 0.80
  Pc 4 content in c-kit^+ BM: 49 Mean fluorescence/cell
BM progenitors (c-kit^+); BM/ABE-8.1/2, BM fraction 0.90
  Pc 4 content in c-kit^+ BM: 55 Mean fluorescence/cell
BM progenitors (c-kit^+); BM/ABE-8.1/2, BM fraction 0.95
  Pc 4 content in c-kit^+ BM: 62 Mean fluorescence/cell
BM progenitors (c-kit^+); BM/BC3A, BM fraction 0.50
  Pc 4 content in c-kit^+ BM: 48 Mean fluorescence/cell
BM progenitors (c-kit^+); BM/BC3A, BM fraction 0.70
  Pc 4 content in c-kit^+ BM: 53 Mean fluorescence/cell
BM progenitors (c-kit^+); BM/BC3A, BM fraction 0.80
  Pc 4 content in c-kit^+ BM: 61 Mean fluorescence/cell
BM progenitors (c-kit^+); BM/BC3A, BM fraction 0.90
  Pc 4 content in c-kit^+ BM: 68 Mean fluorescence/cell
BM progenitors (c-kit^+); BM/BC3A, BM fraction 0.95
  Pc 4 content in c-kit^+ BM: 64 Mean fluorescence/cell
BM progenitors (c-kit^+); BM/L1210, BM fraction 0.50
  Pc 4 content in c-kit^+ BM: 35 Mean fluorescence/cell
BM progenitors (c-kit^+); BM/L1210, BM fraction 0.70
  Pc 4 content in c-kit^+ BM: 43 Mean fluorescence/cell
BM progenitors (c-kit^+); BM/L1210, BM fraction 0.80
  Pc 4 content in c-kit^+ BM: 48 Mean fluorescence/cell
BM progenitors (c-kit^+); BM/L1210, BM fraction 0.90
  Pc 4 content in c-kit^+ BM: 54 Mean fluorescence/cell
BM progenitors (c-kit^+); BM/L1210, BM fraction 0.95
  Pc 4 content in c-kit^+ BM: 60 Mean fluorescence/cell
BM progenitors (c-kit^+); BM/P815, BM fraction 0.50
  Pc 4 content in c-kit^+ BM: 45 Mean fluorescence/cell
BM progenitors (c-kit^+); BM/P815, BM fraction 0.70
  Pc 4 content in c-kit^+ BM: 51 Mean fluorescence/cell
BM progenitors (c-kit^+); BM/P815, BM fraction 0.80
  Pc 4 content in c-kit^+ BM: 64 Mean fluorescence/cell
BM progenitors (c-kit^+); BM/P815, BM fraction 0.90
  Pc 4 content in c-kit^+ BM: 63 Mean fluorescence/cell
BM progenitors (c-kit^+); BM/P815, BM fraction 0.95
  Pc 4 content in c-kit^+ BM: 64 Mean fluorescence/cell
BM progenitors (c-kit^+); BM/WEHI-3, BM fraction 0.50
  Pc 4 content in c-kit^+ BM: 30 Mean fluorescence/cell
BM progenitors (c-kit^+); BM/WEHI-3, BM fraction 0.70
  Pc 4 content in c-kit^+ BM: 38 Mean fluorescence/cell
BM progenitors (c-kit^+); BM/WEHI-3, BM fraction 0.80
  Pc 4 content in c-kit^+ BM: 46 Mean fluorescence/cell
BM progenitors (c-kit^+); BM/WEHI-3, BM fraction 0.90
  Pc 4 content in c-kit^+ BM: 58 Mean fluorescence/cell
BM progenitors (c-kit^+); BM/WEHI-3, BM fraction 0.95
  Pc 4 content in c-kit^+ BM: 65 Mean fluorescence/cell
BM progenitors (c-kit^+); all mixtures (p>0.07)
  Pc 4 uptake of BM progenitor fractions in mixtures versus BM alone: lower, though not significantly
